Assay results from ChEMBL document CHEMBL1149698, “Metallocene-based antimalarials: an exploration into the influence of the ferrocenyl moiety on in vitro antimalarial activity in chloroquine-sensitive and chloroquine-resistant strains of Plasmodium falciparum” (Bioorg Med Chem, 2007).

How the values were obtained:
Plasmodium falciparum [1] = experiment: Antimalarial activity against chloroquine-sensitive Plasmodium falciparum 3D7; type: functional; conditions: read-out: ED50 (the source's name)
Plasmodium falciparum [2] = experiment: Antimalarial activity against chloroquine-resistant Plasmodium falciparum K1; type: functional; conditions: read-out: ED50 (the source's name)

CCN(CC)CCCC(C)Nc1ccnc2cc(Cl)ccc12 (configuration not stated) [CHLOROQUINE]
EC50 (Plasmodium falciparum [1]): 8.52 nM
EC50 (Plasmodium falciparum [2]): 290 nM
